Results on one compound are retold here after US20230302131A1, “MPC INHIBITION FOR PRODUCING T-CELLS WITH A MEMORY PHENOTYPE” (UNIVERSITÉ DE LAUSANNE, priority 2020, published 2023).

The test system of assay [1] is B16 melanoma tumors expressing HER2. Briefly: HER2-CAR T cell production with UK5099 and adoptive transfer into mice with B16 tumors expressing HER2. The format is in vivo, mouse. Here is the method: For each retroviral preparation, 8×10^6 Phoenix ECO cells (ATCC, CRL-3214) were plated in a T150 tissue culture flask in RPMI medium supplemented with 10% FCS, 10 mM HEPES and 50 U/ml Penicillin-Streptomycin. On the next day, cells were transfected with 21 μg of the retroviral construct with Turbofect transfection reagent (Thermo Fischer Scientific), according to the manufacturer protocol. The medium was changed daily and collected at 48 h and 72 h post transfection. 48 h and 72 h virus supernatants were pooled and sedimented at 22000rcf for 2 h at 4° C. Finally, retrovirus pellets were resuspended in 2 ml of full RPMI medium and divided in 8 aliquots of 250 μl each, which were snap-frozen on dry ice and stored at −80° C.
Spleens from wild type CD45.1.2 mice were smashed on a 70 µm cell strainer. CD8 T cells were purified using the EasySep™ Mouse CD8+ T Cell Isolation Kit (StemCell) according to the manufacturer protocol. 0.5×10^6 CD8 T cells were plated in 48 well plates in 0.5 ml of complete RPMI 1640 medium supplemented with 10% FCS, antibiotics and 50 IU/ml of recombinant human IL-2, and exposed to either DMSO or 20 μM UK5099. Mouse T-cells were activated with Activator CD3/CD28 Dynabeads (Gibco) at a ratio of 2 beads per cell. Retroviral infection was conducted at 37° C. for 24 h. Untreated 48-well plates were coated for 24 h with […] of recombinant human fibronectin (Takara Clontech) at 4° C., followed by PBS 2% BSA for 30 min at RT and finally washed with PBS. One aliquot of concentrated retroviruses was plated in each fibronectin-coated 48-well plates and centrifuged for 90 min at 2000rcf and 32° C. Then, 0.5×10^6 of 24 h-activated CD8 T cells were added on top of the viruses and spun for 10 min at 400rcf and 32° C. On day 3, the medium was replaced with 10 IU/ml recombinant human IL-2, 10 ng/ml recombinant human IL-7 and 10 ng/ml recombinant human IL-15, containing either DMSO or 20 μM UK5099. Cells were then split every second day.
CD45.2 C57BL/6 mice were engrafted subcutaneously with 4×10^5 B16F10 tumors modified to express HER2. Six days later, mice were lymphodepleted with 100 mg/kg cyclophosphamide (Sigma Aldrich, C7397) injected i.p., and homogeneous groups were constituted with regard to tumor volume. T cells (5×10^6) were adoptively transferred i.v. on the next day. Tumor volumes were measured three times a week with a caliper and calculated using the formula: V=π×[d2×D]/6, where d is the minor tumor axis and D is the major tumor axis. Tumors were collected and separated from skin. Single cell suspensions were obtained with the Mouse Tumor Dissociation Kit (Miltenyi, 130-096-730) according to the manufacturer protocol. Spleen and draining lymph node were smashed on a 70 µm cell strainer. Single cell suspensions were stained with antibodies before flow cytometry analysis.
Polyclonal CD8 T cells from wild type mice were activated in the presence of DMSO or 20 μM UK5099 and then retrovirally transduced with a control blue fluorescent protein-expressing retroviral construct (BFP) or with HER2-CAR (FIG. 6A). […] More UK5099-HER2CAR T cells were engrafted in the tumor-draining lymph nodes, while CAR T cell numbers in the spleen were similar (FIGS. 6C and 6D). […] As in the spleen, more tumor-infiltrating UK5099-treated CAR T cells expressed TCF1 (FIG. 6G). […] Finally, fewer UK5099-treated CAR T cells were expressing the inhibitory molecules PD1 and TIM3, indicating a less exhausted phenotype (FIG. 6J).

Another assay deals with OT1 CD8 T cells. Briefly: In vitro activation of OT1 splenocytes with N4 peptide and IL-2, CD62L by flow cytometry. The format is cell-based, mouse. Here is the method:
To evaluate the effects of MPC inhibition on T cell differentiation, OT1 splenocytes were cultured in the presence of 1 μg/ml ovalbumin-derived N4 (SIINFEKL) peptide, 100 IU/ml recombinant human IL-2 (rhIL-2) and the MPC inhibitor (MPCi) UK5099 at 75 μM or control DMSO for 3 days. The inhibitor or DMSO was then washed away and the cells were cultured for 4 more days in the presence of 100 IU/ml IL-2 and 10 ng/ml rhIL-7 (FIG. 1A). […] Thus, the increase in the memory markers upon MPCi in vitro treatment occurs at the transcriptional level.
OT1 splenocytes were cultured for 3 days at a concentration of 10^6 cells per mL in RPMI medium (Gibco 61870-01) supplemented with 10% FBS, (Gibco 10270-106), 1% Penicillin/Streptomycin (Gibco 15070-063), 50 μM β-mercaptoethanol, 1% HEPES (Gibco 15630-080), 1× Non-essential amino acids (Gibco 11140-035), 1% L-glutamine (Gibco 25030-081), 1 mM Sodium Pyruvate (Gibco 11360-039). Cells were additionally supplemented with hIL-2 100 U/ml (Glaxo-IMB), ovalbumin N4 peptide (SIINFEKL) 1 μg/ml and either with 75 μM UK5099 (Sigma Aldrich) or with their solvent DMSO as a control. At day 3, splenocytes were collected, washed and split, and cells were cultured for 4 additional days with 100 U/ml hIL-2 and hIL-7 (Peprotech 200-07) supplemented either with 75 μM UK5099 (Sigma Aldrich) or DMSO. […]
In general terms: In flow cytometry, cells or beads pass a laser one at a time.

Setting [2] is: 20 μM during production, vs DMSO.
Setting [3] is: co-expression of TCF1 with PD1, vs DMSO.

With `N#CC(=Cc1cn(-c2ccccc2)c2ccccc12)C(=O)O` [UK5099, 2-cyano-3-(1-phenyl-1H-indol-3-yl)-2-propenoic acid], in assay [1] (setting [2]), the “CAR T cell numbers in the spleen” value is “similar”, the “HER2CAR T cells engrafted in the tumor-draining lymph nodes” value is on record as “More” and the “percentage of splenic HER2CAR T cells expressing TCF1” value is “higher percentage”. The “tumor growth after HER2CAR T cell ACT” value in assay [1] (CAR T cells produced with 20 μM UK5099, 5×10^6 T cells i.v.) is listed as “significantly suppress tumor growth”. For the same compound, in assay [1] (setting [3]), the “progenitor exhausted T cells (TCF1-positive) among CAR T cells in the tumor” value is given as “more” and the “terminally differentiated exhausted T cells (TCF1-negative) among CAR T cells in the tumor” value is given as “less”. In addition, the “CAR T cells expressing the inhibitory molecules PD1 and TIM3” value in assay [1] (in the tumor, vs DMSO) is reported as “fewer”. Also, the “CAR T cells in tumors” value in assay [1] (per mg of tumor, vs DMSO) is listed as “significantly more”. The “tumor-infiltrating CAR T cells expressing TCF1” value in assay [1] (vs DMSO) is listed as “more”. In addition, the “surface expression of the central memory marker CD62L” value in the assay on OT1 CD8 T cells (75 μM d0-d3, then washed away, flow cytometry day 7, compared to DMSO) is “strong increase”. Moreover, the “surface CD62L expression at day 7, continued treatment” value with OT1 CD8 T cells (MPCi treatment continued between d3 and d7) is reported as “even more pronounced than a d0-d3 treatment only”.
